Test results taken from ChEMBL document CHEMBL3407472, “Multi-parameter optimization of aza-follow-ups to BI 207524, a thumb pocket 1 HCV NS5B polymerase inhibitor. Part 2: Impact of lipophilicity on promiscuity and in vivo toxicity” (Bioorg Med Chem Lett, 2015).

Columns and labels:
Hepatitis C virus [1] = test: Antiviral activity against Hepatitis C virus genotype 1b infected in human Huh cells assessed as inhibition of viral replication by RT-PCR-based replicon assay; assay type: functional, cell-based, Hepacivirus hominis
[2] = Half life in human liver microsomes at 2 uM; assay type: ADME
[3] = Lipophilicity, log D of the compound at pH 7.4; assay type: physicochemical; conditions: buffer
[4] = Half life in rat liver microsomes at 2 uM; assay type: ADME
[5] = Plasma concentration in rat at 2 mg/kg, po each in 0.5% Methylcellulose and 0.3% Tween-80 and 1% N-methylpyrrolidone after 1 hr; assay type: ADME, organism-based; parameters: dose 2 mg/kg, route oral
[6] = Plasma concentration in rat at 2 mg/kg, po each in 0.5% Methylcellulose and 0.3% Tween-80 and 1% N-methylpyrrolidone after 2 hrs; assay type: ADME, organism-based; parameters: dose 2 mg/kg, route oral
[7] = Lipophilicity, log D of the compound; assay type: physicochemical; conditions: octanol/water
Hepatitis C virus [8] = test: Antiviral activity against Hepatitis C virus genotype 1a infected in human Huh cells assessed as inhibition of viral replication by RT-PCR-based replicon assay; assay type: functional, cell-based, Hepacivirus hominis; conditions: subtype 1a
[9] = Half life in cynomolgous monkey liver microsomes at 2 uM; assay type: ADME, Macaca fascicularis; conditions: cynomolgus monkey
[10] = Half life in dog liver microsomes at 2 uM; assay type: ADME, Canis lupus familiaris
[11] = Cmax in rat at 5 mg/kg, po and 2 mg/kg, iv; assay type: ADME, organism-based; conditions: in vivo
[12] = Cmax in cynomolgous monkey at 5 mg/kg, po and 2 mg/kg, iv; assay type: ADME, organism-based, Macaca fascicularis; conditions: cynomolgus monkey, in vivo
[13] = Cmax in dog at 5 mg/kg, po and 2 mg/kg, iv; assay type: ADME, organism-based, Canis lupus familiaris; conditions: in vivo
[14] = Half life in cynomolgous monkey at 5 mg/kg, po and 2 mg/kg, iv; assay type: ADME, organism-based, Macaca fascicularis; conditions: cynomolgus monkey, in vivo
[15] = Half life in rat at 5 mg/kg, po and 2 mg/kg, iv; assay type: ADME, organism-based; conditions: in vivo
[16] = AUC in rat at 5 mg/kg, po and 2 mg/kg, iv; assay type: ADME, organism-based; conditions: plasma
[17] = AUC in cynomolgous monkey at 5 mg/kg, po and 2 mg/kg, iv; assay type: ADME, organism-based, Macaca fascicularis; conditions: cynomolgus monkey, plasma
[18] = AUC in dog at 5 mg/kg, po and 2 mg/kg, iv; assay type: ADME, organism-based, Canis lupus familiaris; conditions: plasma
[19] = Half life in dog at 5 mg/kg, po and 2 mg/kg, iv; assay type: ADME, organism-based, Canis lupus familiaris; conditions: in vivo
[20] = Volume of distribution at steady state in rat at 5 mg/kg, po and 2 mg/kg, iv; assay type: ADME, organism-based; conditions: in vivo, read-out: Vdss
[21] = Volume of distribution at steady state in cynomolgous monkey at 5 mg/kg, po and 2 mg/kg, iv; assay type: ADME, organism-based, Macaca fascicularis; conditions: cynomolgus monkey, in vivo, read-out: Vdss
[22] = Volume of distribution at steady state in dog at 5 mg/kg, po and 2 mg/kg, iv; assay type: ADME, organism-based, Canis lupus familiaris; conditions: in vivo, read-out: Vdss
[23] = Clearance in rat at 5 mg/kg, po and 2 mg/kg, iv; assay type: ADME, organism-based; conditions: in vivo
[24] = Clearance in cynomolgous monkey at 5 mg/kg, po and 2 mg/kg, iv; assay type: ADME, organism-based, Macaca fascicularis; conditions: cynomolgus monkey, in vivo
[25] = Clearance in dog at 5 mg/kg, po and 2 mg/kg, iv; assay type: ADME, organism-based, Canis lupus familiaris; conditions: in vivo
[26] = Bioavailability in rat at 5 mg/kg, po and 2 mg/kg, iv; assay type: ADME, organism-based; conditions: in vivo
[27] = Bioavailability in cynomolgous monkey at 5 mg/kg, po and 2 mg/kg, iv; assay type: ADME, organism-based, Macaca fascicularis; conditions: cynomolgus monkey, in vivo
[28] = Bioavailability in dog at 5 mg/kg, po and 2 mg/kg, iv; assay type: ADME, organism-based, Canis lupus familiaris; conditions: in vivo
[29] = Ratio of drug uptake in liver to plasma of rat at 5 mg/kg, po and 2 mg/kg, iv after 6 to 8 hrs; assay type: ADME, organism-based
[30] = Cmax in rat at 2 mg/kg, po each in 0.5% Methylcellulose and 0.3% Tween-80 and 1% N-methylpyrrolidone; assay type: ADME, organism-based; parameters: dose 2 mg/kg, route oral; conditions: in vivo
[31] = biological target: T1, Amine oxidase [flavin-containing] A (Homo sapiens, UniProt P21397); test: Inhibition of MAO-A (unknown origin)
T1 sequence (P21397 whole entry): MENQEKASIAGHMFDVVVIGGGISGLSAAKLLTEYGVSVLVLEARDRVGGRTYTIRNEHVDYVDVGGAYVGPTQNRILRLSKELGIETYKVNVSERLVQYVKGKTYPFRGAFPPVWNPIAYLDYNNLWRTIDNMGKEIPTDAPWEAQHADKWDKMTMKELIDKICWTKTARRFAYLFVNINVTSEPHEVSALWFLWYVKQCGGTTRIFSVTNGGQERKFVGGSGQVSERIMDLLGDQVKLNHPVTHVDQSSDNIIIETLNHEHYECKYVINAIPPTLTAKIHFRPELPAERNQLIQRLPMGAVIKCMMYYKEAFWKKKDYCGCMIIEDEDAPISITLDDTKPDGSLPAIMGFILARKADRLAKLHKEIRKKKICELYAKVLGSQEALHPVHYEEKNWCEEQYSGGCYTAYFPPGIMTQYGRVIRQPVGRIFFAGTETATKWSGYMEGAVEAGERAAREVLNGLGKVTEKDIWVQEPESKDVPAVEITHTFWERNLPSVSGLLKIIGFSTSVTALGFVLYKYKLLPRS

D(1A) dopamine receptor = D(1A) dopamine receptor (Homo sapiens, UniProt P21728); test: Inhibition of dopamine D1 receptor (unknown origin)
Cathepsin G = biological target: T2, Cathepsin G (Homo sapiens, UniProt P08311); test: Inhibition of cathepsin G (unknown origin)
T2 sequence (P08311 whole entry): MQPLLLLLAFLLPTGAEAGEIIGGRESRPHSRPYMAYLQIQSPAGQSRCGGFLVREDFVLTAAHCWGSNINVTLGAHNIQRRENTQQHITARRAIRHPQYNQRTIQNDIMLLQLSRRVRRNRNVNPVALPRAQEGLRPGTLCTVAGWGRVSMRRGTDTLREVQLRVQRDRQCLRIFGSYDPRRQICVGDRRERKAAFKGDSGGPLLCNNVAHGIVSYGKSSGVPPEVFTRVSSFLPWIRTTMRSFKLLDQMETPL

[32] = biological target: 5-hydroxytryptamine receptor 2A (Homo sapiens, UniProt P28223); test: Inhibition of serotonin 5-HT2A receptor (unknown origin)
[33] = Permeability from apical to basolateral side of human Caco2 cells; assay type: ADME, cell-based; conditions: Caco-2, read-out: permeability
[34] = biological target: Voltage-gated inwardly rectifying potassium channel KCNH2 (Homo sapiens, UniProt Q12809); test: Inhibition of human ERG channel
Voltage-gated inwardly rectifying potassium channel KCNH2, sequence (Q12809 whole entry): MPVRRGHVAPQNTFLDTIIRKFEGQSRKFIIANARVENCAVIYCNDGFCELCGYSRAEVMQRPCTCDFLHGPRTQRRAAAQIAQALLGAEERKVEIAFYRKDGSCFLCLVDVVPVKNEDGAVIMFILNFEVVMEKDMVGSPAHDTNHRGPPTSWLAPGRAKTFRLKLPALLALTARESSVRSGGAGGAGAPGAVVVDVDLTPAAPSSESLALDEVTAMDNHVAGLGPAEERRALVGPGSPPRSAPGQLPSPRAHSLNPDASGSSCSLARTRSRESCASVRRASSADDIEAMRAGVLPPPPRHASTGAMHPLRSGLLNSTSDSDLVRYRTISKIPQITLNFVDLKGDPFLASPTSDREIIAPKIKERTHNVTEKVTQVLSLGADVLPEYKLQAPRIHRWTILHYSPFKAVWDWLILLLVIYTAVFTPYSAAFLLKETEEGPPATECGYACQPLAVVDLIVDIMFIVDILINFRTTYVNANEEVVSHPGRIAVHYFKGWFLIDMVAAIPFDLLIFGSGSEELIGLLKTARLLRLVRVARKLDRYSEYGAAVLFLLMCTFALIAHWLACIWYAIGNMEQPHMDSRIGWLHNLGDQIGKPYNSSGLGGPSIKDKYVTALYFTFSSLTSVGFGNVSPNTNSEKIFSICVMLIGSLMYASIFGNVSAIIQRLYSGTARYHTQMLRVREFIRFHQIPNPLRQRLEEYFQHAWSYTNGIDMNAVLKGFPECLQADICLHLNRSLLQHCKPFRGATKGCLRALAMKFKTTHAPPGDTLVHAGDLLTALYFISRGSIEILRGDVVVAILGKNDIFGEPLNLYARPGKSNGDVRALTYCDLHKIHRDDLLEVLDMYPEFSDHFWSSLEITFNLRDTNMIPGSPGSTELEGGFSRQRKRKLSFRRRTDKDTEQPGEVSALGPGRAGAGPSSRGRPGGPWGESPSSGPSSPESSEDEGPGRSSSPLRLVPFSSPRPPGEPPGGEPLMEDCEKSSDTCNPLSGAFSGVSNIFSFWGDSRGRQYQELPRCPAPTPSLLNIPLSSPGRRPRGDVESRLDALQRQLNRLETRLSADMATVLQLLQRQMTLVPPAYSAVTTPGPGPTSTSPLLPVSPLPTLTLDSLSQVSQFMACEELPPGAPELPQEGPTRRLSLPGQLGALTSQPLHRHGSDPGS

5-hydroxytryptamine receptor 2A, sequence (P28223 whole entry): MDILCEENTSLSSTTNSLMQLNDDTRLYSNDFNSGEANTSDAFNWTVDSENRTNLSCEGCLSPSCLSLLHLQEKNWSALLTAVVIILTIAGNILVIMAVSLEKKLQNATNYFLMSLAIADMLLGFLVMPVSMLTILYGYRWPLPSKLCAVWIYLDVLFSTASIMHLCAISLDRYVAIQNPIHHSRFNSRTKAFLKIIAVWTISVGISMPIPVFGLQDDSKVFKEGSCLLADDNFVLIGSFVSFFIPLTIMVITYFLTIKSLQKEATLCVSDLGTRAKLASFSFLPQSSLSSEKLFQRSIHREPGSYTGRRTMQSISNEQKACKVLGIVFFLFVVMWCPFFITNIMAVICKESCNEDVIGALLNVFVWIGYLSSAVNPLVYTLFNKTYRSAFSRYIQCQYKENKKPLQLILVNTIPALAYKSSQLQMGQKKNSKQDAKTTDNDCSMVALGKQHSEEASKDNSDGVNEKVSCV
D(1A) dopamine receptor, sequence (P21728 whole entry): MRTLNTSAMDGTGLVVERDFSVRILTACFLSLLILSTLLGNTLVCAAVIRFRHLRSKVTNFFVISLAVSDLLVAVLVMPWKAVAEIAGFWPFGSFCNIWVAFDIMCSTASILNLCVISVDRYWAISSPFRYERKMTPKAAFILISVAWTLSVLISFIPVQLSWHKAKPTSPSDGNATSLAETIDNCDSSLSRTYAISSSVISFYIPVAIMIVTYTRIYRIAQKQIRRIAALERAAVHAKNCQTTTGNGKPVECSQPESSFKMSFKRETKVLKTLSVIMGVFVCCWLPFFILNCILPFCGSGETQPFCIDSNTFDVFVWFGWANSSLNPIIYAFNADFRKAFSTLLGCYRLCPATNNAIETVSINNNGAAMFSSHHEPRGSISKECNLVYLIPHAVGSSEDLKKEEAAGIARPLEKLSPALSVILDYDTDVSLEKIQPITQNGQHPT

`CCOc1nc(NC(=O)C2(NC(=O)c3ccc4c(C5CCCC5)c(-c5ccccn5)n(C)c4c3)CCC2)cnc1/C=C/C(=O)O` showed an EC50 (Hepatitis C virus [1]) of 13 nM, a half-life at 2 µM [2] of 1.78 h and a logD [3] of 3.1. For the same compound, the half-life at 2 µM [4] was 0.617 h, the concentration at 1 h [5] was 500 nM and the concentration at 2 h [6] was 200 nM. For the same compound, the logD [7] was 3.1.

`CCOc1nc(NC(=O)C(C)(C)NC(=O)c2ccc3c(C4CCCC4)c(-c4ccc(F)cn4)n(C)c3c2)ccc1/C=C/C(=O)O` gave an EC50 (Hepatitis C virus [1]) of 5 nM, an EC50 (Hepatitis C virus [8]) of 23 nM and a half-life at 2 µM [2] of 1.5 h. It also gave a logD [3] of 3.5, a half-life at 2 µM [4] of 1.3 h and a half-life at 2 µM [9] of 0.217 h. For the same compound, the half-life at 2 µM [10] was 3.13 h, the Cmax [11] was 3600 nM and the Cmax [12] was 440 nM. It also gave a Cmax [13] of 7200 nM, a half-life [14] of 0.7 h and a half-life [15] of 2.8 h. It also gave an AUC [16] of 7.2 µM·h, an AUC [17] of 1.2 µM·h and an AUC [18] of 21 µM·h. For the same compound, the half-life [19] was 2.3 h, the Vd [20] was 1.43 L/kg and the Vd [21] was 0.4 L/kg. For the same compound, the Vd [22] was 0.48 L/kg, the clearance [23] was 13.1 mL/min/kg and the clearance [24] was 13.9 mL/min/kg. The clearance [25] was 4.6 mL/min/kg, the bioavailability [26] was 71% and the bioavailability [27] was 12%. The bioavailability [28] was 69%, the Kp [29] was 13.5 and the Cmax [30] was 3600 nM. For the same compound, the logD [7] was 3.5, the IC50 [31] was 1300 nM and the IC50 (D(1A) dopamine receptor) was 6000 nM. For the same compound, the IC50 (Cathepsin G) was 6000 nM and the IC50 [32] was 6000 nM.

`CCOc1nc(NC(=O)C2(NC(=O)c3ccc4c(C5CCCC5)c(-c5ccc(F)cn5)n(C)c4c3)CCC2)ccc1/C=C/C(=O)O` gave an EC50 (Hepatitis C virus [1]) of 10 nM, an EC50 (Hepatitis C virus [8]) of 24 nM and a half-life at 2 µM [2] of 1.37 h. The Papp A→B [33] was 14 ×10⁻⁶ cm/s, the logD [3] was > 4.7 and the half-life at 2 µM [4] was 0.95 h. The half-life at 2 µM [9] was 0.433 h, the half-life at 2 µM [10] was 2.52 h and the Cmax [11] was 5000 nM. It also gave a Cmax [12] of 3800 nM, a Cmax [13] of 8600 nM and a half-life [14] of 2.3 h. It also gave a half-life [15] of 2.1 h, an AUC [16] of 11 µM·h and an AUC [17] of 12 µM·h. It also gave an AUC [18] of 48 µM·h, a half-life [19] of 5.1 h and a Vd [20] of 0.44 L/kg. The Vd [21] was 0.47 L/kg, the Vd [22] was 0.36 L/kg and the clearance [23] was 4.9 mL/min/kg. The clearance [24] was 4.6 mL/min/kg, the clearance [25] was 1.9 mL/min/kg and the bioavailability [26] was 44%. For the same compound, the bioavailability [27] was 44%, the bioavailability [28] was 61% and the Kp [29] was 6. For the same compound, the IC50 [34] was 2100 nM.

`CCOc1nc(NC(=O)C(C)(C)NC(=O)c2ccc3c(C4CCCC4)c(-c4ccc(Cl)cn4)n(C)c3c2)cnc1/C=C/C(=O)O` showed an EC50 (Hepatitis C virus [1]) of 6 nM, a half-life at 2 µM [2] of 4.6 h and a logD [3] of 2.6. The half-life at 2 µM [4] was > 5 h, the concentration at 2 h [6] was 660 nM and the Cmax [30] was 660 nM. It also gave a logD [7] of 2.6.

In the case of `CCOc1nc(NC(=O)C(C)(C)NC(=O)c2ccc3c(C4CCCC4)c(-c4cncnc4)n(C)c3c2)ccc1/C=C/C(=O)O`, the EC50 (Hepatitis C virus [1]) is reported as 12 nM, the half-life at 2 µM [2] is reported as 1.15 h and the logD [3] is reported as 3. For the same compound, the half-life at 2 µM [4] was 1.27 h, the concentration at 1 h [5] was 200 nM and the concentration at 2 h [6] was 100 nM. The logD [7] was 3.

For `CCOc1nc(NC(=O)C2(NC(=O)c3ccc4c(C5CCCC5)c(-c5cnccn5)n(C)c4c3)CCCC2)cnc1/C=C/C(=O)O`, the EC50 (Hepatitis C virus [1]) was 5 nM, the EC50 (Hepatitis C virus [8]) was 13 nM and the half-life at 2 µM [2] was 1.33 h. The logD [3] was 3.2, the half-life at 2 µM [4] was > 5 h and the concentration at 1 h [5] was 400 nM. For the same compound, the concentration at 2 h [6] was 100 nM and the logD [7] was 3.2.

`CCOc1nc(NC(=O)C(C)(C)NC(=O)c2ccc3c(C4CCCC4)c(-c4ncc(Cl)cn4)n(C)c3c2)cnc1/C=C/C(=O)O` gave an EC50 (Hepatitis C virus [1]) of 12 nM, an EC50 (Hepatitis C virus [8]) of 21 nM and a half-life at 2 µM [2] of 2.3 h. It also gave a logD [3] of 3.3, a half-life at 2 µM [4] of 1.82 h and a Cmax [30] of 900 nM. It also gave a logD [7] of 3.3 and an IC50 [32] of 5200 nM.
